# From patent US20250099466A1 (BRISTOL-MYERS SQUIBB COMPANY, priority 2021, published 2025)
# Tested on: electrically induced carotid artery thrombus (ECAT) in rabbits
# Assay: Prevention rabbit model of electrically induced carotid artery thrombus (ECAT)
# Type: in vivo
# Protocol: The rabbit ECAT model as described by Wong et al., Nonpeptide factor Xa inhibitors: II.
# Male New Zealand white rabbits were anesthetized with ketamine (50 mg/kg+50 mg/kg/h intramuscularly) and xylazine (10 mg/kg+10 mg/kg/h intramuscularly). Thrombosis was induced by electrical stimulation of the control carotid artery for 3 minutes at 4 mA using an external stainless-steel bipolar electrode. Carotid blood flow was measured with an electromagnetic flow probe continuously over a 90-minute period to monitor thrombosis induced occlusion. Integrated carotid blood flow was measured by the area under the flowtime curve (see Wong et al.). In addition, thrombus from the injured artery was removed, blotted twice on a weighing paper to remove residual fluid, and weighed.
# To achieve a stable plasma level with minimum experimental variability, compounds were administered by IV infusion. […] The IV infusion was continued throughout the experiment for both models.
# Integrated blood flow, thrombus weight, aPTT (activated partial thromboplastin time), TT (thrombin time), and PT (prothrombin time) were also measured.
structure (smiles),measurement,setting,value
"C[C@@H]1CCC[C@H](n2cnc(-c3cc(Cl)ccc3-n3cc(Cl)nn3)cc2=O)c2cc(ccn2)-c2c(cnn2C(F)F)NC1=O [milvexian, (5R,9S)-9-(4-(5-chloro-2-(4-chloro-1H-1,2,3-triazol-1-yl)phenyl)-6-oxopyrimidin-1(6H)-yl)-21-(difluoromethyl)-5-methyl-21H-3-aza-1(4,2)-pyridina-2(5,4)-pyrazolacyclononaphan-4-one]",thrombus weight reduction,"highest dose (1+0.67 mg/kg+mg/kg/h IV), prevention ECAT",70±2%
same,"integrated blood flow, % of the control level","highest dose (1+0.67 mg/kg+mg/kg/h IV), prevention ECAT, n=6",76±5%
same,duration of the patency of the carotid artery,"prevention ECAT, 0.063+0.04, 0.25+0.17, 1+0.67 mg/kg+mg/kg/h IV",dose-dependent increase in duration of the patency of the carotid artery
same,bleeding time,rabbit,without a significant increase in bleeding time
same,antithrombotic 20% maximal effective concentration (EC20),"total plasma concentration, thrombus weight reduction, prevention ECAT",55 nM
